Data as given in patent US20220362396A1, “AMINO-PYRAZINECARBOXAMIDE COMPOUNDS, CONJUGATES, AND USES THEREOF” (Silverback Therapeutics, Inc., priority 2018, published 2022).

Key:
[1] = test system: TGFβ/SMAD Signaling Pathway SBE reporter cell line; test: TGFβ reporter assay, in vitro small molecule screening (luciferase); format: cell-based; conditions: TGFβ stimulation, luminescence
Protocol: TGFβ/SMAD Signaling Pathway SBE reporter cell line was obtained from BPS Bioscience. Cells were passed, expanded, and stored in liquid nitrogen as per the supplier's instructions with the exception that growth media is changed to DMEM-C with Geneticin (DMEM supplemented with 10% fetal bovine serum, 1×NEAA, 1 mM Pyruvate, 2 mM glutamine, 50 μg/mL penicillin, 50 U/mL streptomycin and 400 μg/mL of Geneticin). The assay media was MEM supplemented with 0.5% fetal bovine serum, 1×NEAA, 1 mM Pyruvate, 50 μg/mL penicillin and 50 U/mL streptomycin.
Test samples (at desired concentrations diluted in assay media) were added to a 96-well assay plate, 20 μL per well. Reporter cells were harvested from the tissue culture flasks by incubation in small quantity of PBS at 37° C. for two minutes after the media in the flask is removed and cells rinsed with PBS. Cells were counted and diluted in the assay media at approximately 0.5×10^6 cells/mL and then 80 μL/well of cells were added to the assay plate containing the 20 μL/well of test samples (or media only), and incubated for approximately 5-6 hours at 37° C. in a 5% CO2 humidified incubator. After that time, 15 μL of TGFβ diluted to 12 ng/mL in the assay media was added to the plate. Controls included TGFβ titration (from 50 to 0 ng/mL) without inhibitors, and media only (without cells, inhibitor or TGFβ). Plates were incubated at 37° C. in a 5% CO2 humidified incubator for 18 h. Luciferase substrate solution is subsequently added at 100 μL per well, incubated in the dark at room temperature for 15 min, and luminescence is measured using a luminometer. EC50 values and curve fits were obtained using Prism (GraphPad Software).

[2] = biological target: T1, TGFBR2 (Homo sapiens, UniProt P37173); test: TGFBR2 RBC assay (enzyme inhibition assay, Reaction Biology Corp.); format: biochemical
T1 construct: purchased Reaction Biology Corp
Protocol: Compounds of the disclosure were also assayed by Reaction Biology Corp. using the TGFBR2 RBC assay (enzyme inhibition assay). […] NT refers to not tested.

T1 sequence (P37173 23-567): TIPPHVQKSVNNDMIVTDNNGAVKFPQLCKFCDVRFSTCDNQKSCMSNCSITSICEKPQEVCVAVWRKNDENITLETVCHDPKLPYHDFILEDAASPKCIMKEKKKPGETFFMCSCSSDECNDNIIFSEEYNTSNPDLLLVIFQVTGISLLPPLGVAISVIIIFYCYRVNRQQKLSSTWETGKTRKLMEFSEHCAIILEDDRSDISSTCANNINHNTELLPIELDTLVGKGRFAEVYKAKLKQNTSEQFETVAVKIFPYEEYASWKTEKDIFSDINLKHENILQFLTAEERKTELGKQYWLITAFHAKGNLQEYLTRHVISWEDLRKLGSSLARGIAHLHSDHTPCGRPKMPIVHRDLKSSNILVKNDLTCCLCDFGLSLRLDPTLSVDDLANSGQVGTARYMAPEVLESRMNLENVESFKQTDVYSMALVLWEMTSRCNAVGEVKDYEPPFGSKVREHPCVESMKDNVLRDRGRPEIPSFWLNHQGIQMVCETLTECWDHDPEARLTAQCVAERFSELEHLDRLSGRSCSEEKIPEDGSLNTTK

SMILES | EC50 [1] [nM] | IC50 [2] [nM]
COc1ccc(-c2ccncc2NC(=O)c2nc(-c3ccc(CCNC(=O)OCc4ccccc4)cc3)cnc2N)cn1 [Compound 16] | 100 to 1000 | < 50
Cc1cc(-c2ccncc2NC(=O)c2nc(-c3ccc(CCNC(=O)OCc4ccccc4)cc3)cnc2N)ccn1 [Compound 17] | 100 to 1000 | 100 to 1000
Nc1ncc(-c2ccc(CCNC(=O)OCc3ccccc3)cc2)nc1C(=O)Nc1cnccc1-c1ccnc(Cl)c1 [Compound 18] | 100 to 1000 | > 1000
Nc1ncc(-c2ccc(CCNC(=O)OCc3ccccc3)cc2)nc1C(=O)Nc1cnccc1-c1ccnc2ccccc12 [Compound 19] | > 1000 | > 1000
Nc1ncc(-c2ccc(CCNC(=O)OCc3ccccc3)cc2)nc1C(=O)Nc1cnccc1-c1ccc(F)cc1 [Compound 20] | > 1000 | > 1000
COc1cc(-c2ccncc2NC(=O)c2nc(-c3ccc(CCNC(=O)OCc4ccccc4)cc3)cnc2N)ccn1 [Compound 21] | 100 to 1000 | > 1000
Nc1ncc(-c2ccc(CCNC(=O)OCc3ccccc3)cc2)nc1C(=O)Nc1cnccc1-c1ccc(=O)[nH]c1 [Compound 22] | 50 to 100 | 100 to 1000
Nc1ncc(-c2ccc(CCNC(=O)OCc3ccccc3)cc2)nc1C(=O)Nc1cnccc1-c1ccncc1F [Compound 23] | 100 to 1000 | < 50
COc1cccc(-c2ccncc2NC(=O)c2nc(-c3ccc(CCNC(=O)OCc4ccccc4)cc3)cnc2N)c1 [Compound 24] | 100 to 1000 | 100 to 1000
Nc1ncc(-c2ccc(CCNC(=O)OCc3ccccc3)cc2)nc1C(=O)Nc1cnccc1-c1ccccn1 [Compound 25] | 100 to 1000 | < 50
Nc1ncc(-c2ccc(CCNC(=O)OCc3ccccc3)cc2)nc1C(=O)Nc1cnccc1-c1ccc2c(c1)OCO2 [Compound 26] | 100 to 1000 | < 50
[N-]=[N+]=NCC1COCCN1c1ccncc1NC(=O)c1nc(-c2ccc(CCNC(=O)OCc3ccccc3)cc2)cnc1N (stereo not drawn) [Compound 27] | > 1000 | > 1000
C[C@H]1CN(c2ccncc2NC(=O)c2nc(-c3ccc(CCNC(=O)OCc4ccccc4)cc3)cnc2N)CCO1 [Compound 28] | 100 to 1000 | 100 to 1000
Nc1ncc(-c2ccc(CCNC(=O)OCc3ccccc3)cc2)nc1C(=O)Nc1cnccc1N1CCC(F)(F)CC1 [Compound 29] | 100 to 1000 | > 1000
NCC1CN(c2ccncc2NC(=O)c2nc(-c3ccc(CCNC(=O)OCc4ccccc4)cc3)cnc2N)CCO1 (stereo not drawn) [Compound 30] | > 1000 | 100 to 1000
N#Cc1ccccc1-c1ccncc1NC(=O)c1nc(-c2ccc(CCNC(=O)OCc3ccccc3)cc2)cnc1N [Compound 31] | > 1000 | > 1000
Cc1cnccc1-c1ccncc1NC(=O)c1nc(-c2ccc(CCNC(=O)OCc3ccccc3)cc2)cnc1N [Compound 32] | 50 to 100 | 100 to 1000
COc1cnccc1-c1ccncc1NC(=O)c1nc(-c2ccc(CCNC(=O)OCc3ccccc3)cc2)cnc1N [Compound 33] | 100 to 1000 | > 1000
Nc1ncc(-c2ccc(CCNC(=O)OCc3ccccc3)cc2)nc1C(=O)Nc1cnccc1-c1ccc(O)cc1 [Compound 34] | > 1000 | 100 to 1000
Nc1ncc(-c2ccc(CCNC(=O)OCc3ccccc3)cc2)nc1C(=O)Nc1cnccc1N1CCOCC1=O [Compound 35] | 100 to 1000 | 100 to 1000
Nc1ncc(-c2ccc(CCNC(=O)OCc3ccccc3)cc2)nc1C(=O)Nc1cnccc1N1CCSCC1 [Compound 36] | 50 to 100 | 100 to 1000
NCC1COCCN1c1ccncc1NC(=O)c1nc(-c2ccc(CCNC(=O)OCc3ccccc3)cc2)cnc1N (stereo not drawn) [Compound 37] | > 1000 | > 1000
Nc1ncc(-c2ccc(CCNC(=O)OCc3ccccc3)cc2)nc1C(=O)Nc1cnccc1N1CCCOC1=O [Compound 38] | 100 to 1000 | 100 to 1000
Nc1ncc(-c2ccc(CCNC(=O)OCc3ccccc3)cc2)nc1C(=O)Nc1cnccc1-c1cc[nH]c(=O)c1 [Compound 39] | > 1000 | 100 to 1000
Nc1cc(-c2ccncc2NC(=O)c2nc(-c3ccc(CCNC(=O)OCc4ccccc4)cc3)cnc2N)ccn1 [Compound 40] | > 1000 | < 50
NCC1CN(c2ccncc2NC(=O)c2nc(-c3ccc(CCNC(=O)OCc4ccccc4)cc3)cnc2N)CCO1 (stereo not drawn) [Compound 41] | 100 to 1000 | 100 to 1000
COC1CCN(c2ccncc2NC(=O)c2nc(-c3ccc(CCNC(=O)OCc4ccccc4)cc3)cnc2N)CC1 [Compound 42] | 100 to 1000 | 50 to 100

SMILES | EC50 [1] [nM] | IC50 [2] [nM]
Nc1ccc(-c2ccncc2NC(=O)c2nc(-c3ccc(CCNC(=O)OCc4ccccc4)cc3)cnc2N)cn1 [Compound 43] | 100 to 1000 | < 50
CNCCc1ccc(-c2cnc(N)c(C(=O)Nc3cnccc3N3CCOCC3)n2)cc1 [Compound 44] | 100 to 1000 | 100 to 1000
Nc1ncc(-c2ccc(CCNC(=O)OCc3ccccc3)c(F)c2)nc1C(=O)Nc1cnccc1N1CCOCC1 [Compound 46] | 100 to 1000 | < 50
Nc1ncc(-c2ccc(CCNC(=O)OCc3ccccc3)cc2)nc1C(=O)Nc1cnccc1N1CCOCCC1=O [Compound 47] | > 1000 | > 1000
Nc1ncc(-c2ccc(CCNC(=O)OCc3ccccc3)cc2)nc1C(=O)Nc1cnccc1-c1ccnnc1 [Compound 48] | > 1000 | < 50
Nc1ncc(-c2ccc(CCNC(=O)OCc3ccccc3)cc2)nc1C(=O)Nc1cnccc1-c1ccncn1 [Compound 49] | > 1000 | > 1000
Nc1ncc(-c2ccc(CCNC(=O)OCc3ccccc3)cc2F)nc1C(=O)Nc1cnccc1N1CCOCC1 [Compound 50] | 100 to 1000 | < 50
CC(=O)CCC(=O)NCCc1ccc(-c2cnc(N)c(C(=O)Nc3cnccc3N3CCOCC3)n2)cc1 [Compound 51] | 50 to 100 | < 50
Nc1ncc(-c2ccc(CCNC(=O)OCc3ccccc3)cc2)nc1C(=O)Nc1cnccc1N1CCS(=O)(=O)CC1 [Compound 52] | 100 to 1000 | > 1000
COC1CCN(c2ccncc2NC(=O)c2nc(-c3ccc(CCNC(=O)OCc4ccccc4)cc3)cnc2N)C1 (stereo not drawn) [Compound 53] | > 1000 | > 1000
Nc1ncc(-c2ccc(CCNC(=O)CCC(=O)c3ccccc3)cc2)nc1C(=O)Nc1cnccc1N1CCOCC1 [Compound 54] | 50 to 100 | < 50
NCCc1ccc(-c2cnc(N)c(C(=O)Nc3cnccc3N3CCOCC3)n2)c(F)c1 [Compound 55] | < 50 | < 50
COc1cc(CCN)ccc1-c1cnc(N)c(C(=O)Nc2cnccc2N2CCOCC2)n1 [Compound 56] | 50 to 100 | 50 to 100
NCCc1cc(F)c(-c2cnc(N)c(C(=O)Nc3cnccc3N3CCOCC3)n2)c(F)c1 [Compound 57] | 100 to 1000 | 100 to 1000
Nc1ncc(-c2ccc(S(=O)(=O)N3CCNCC3)cc2)nc1C(=O)Nc1cnccc1N1CCOCC1 [Compound 62] | 50 to 100 | 100 to 1000
Nc1ncc(-c2ccc(S(=O)(=O)N3CCN(C(=O)OCc4ccccc4)CC3)cc2)nc1C(=O)Nc1cnccc1N1CCOCC1 [Compound 63] | 50 to 100 | 100 to 1000
NCCOc1ccc(-c2cnc(N)c(C(=O)Nc3cnccc3N3CCOCC3)n2)cc1 [Compound 64] | 50 to 100 | < 50
NCCCOc1ccc(-c2cnc(N)c(C(=O)Nc3cnccc3N3CCOCC3)n2)cc1 [Compound 65] | 100 to 1000 | < 50
NCCCc1ccc(-c2cnc(N)c(C(=O)Nc3cc(F)ccc3N3CCOCC3)n2)cc1 [Compound 66] | > 1000 | 100 to 1000
Nc1ncc(-c2ccc3c(c2)CNCC3)nc1C(=O)Nc1cnccc1N1CCOCC1 [Compound 67] | 50 to 100 | 50 to 100
CC(C)(C)OC(=O)N1CCc2ccc(-c3cnc(N)c(C(=O)Nc4cnccc4N4CCOCC4)n3)cc2C1 [Compound 68] | 100 to 1000 | < 50
NCCCc1ccc(-c2cnc(N)c(C(=O)Nc3cnccc3N3CCOCC3)c2)cc1 [Compound 69] | > 1000 | > 1000
Nc1ncc(-c2ccc(N3CCNCC3)cc2)nc1C(=O)Nc1cnccc1N1CCOCC1 [Compound 70] | 50 to 100 | < 50
CC(C)(C)OC(=O)N1CCN(c2ccc(-c3cnc(N)c(C(=O)Nc4cnccc4N4CCOCC4)n3)cc2)CC1 [Compound 71] | 100 to 1000 | < 50
Nc1ncc(-c2ccc(CCNC(=O)OCc3ccccc3)cc2)nc1C(=O)Nc1cnccc1CN1CCCC1 [Compound 72] | 100 to 1000 | 50 to 100
NCCCCc1ccc(-c2cnc(N)c(C(=O)Nc3cnccc3N3CCOCC3)n2)cc1 [Compound 73] | 50 to 100 | < 50
Nc1ncc(-c2ccc(CCCCNC(=O)OCc3ccccc3)cc2)nc1C(=O)Nc1cnccc1N1CCOCC1 [Compound 74] | 100 to 1000 | 50 to 100
